Among the data in patent US5929075A, “Apolipoprotein-B synthesis inhibitors” (Janssen Pharmaceutica, N.V., priority 1994, dated 1999) are IC50 values, retold here.

In this test the test system is apolipoprotein B. Put plainly: Apolipoprotein B (apo B) inhibition test in cultured human liver cells (Hepg2-cells). The test is classed as cell-based. To be noted: concentration of the drug needed to reduce apoB secretion to 50% of the control, overnight at 37° C. As for the experimental part: Cultured human liver cells (Hepg2-cells), which synthesize and secrete low-density lipoproteins, were incubated overnight at 37° C. in a liquid medium containing radioactively labelled leucine. Thus radioactively labelled leucine was incorporated into the apolipoprotein B. The liquid medium was decanted and the apolipoprotein B was isolated by means of a double immunoprecipitation, i.e. first an apolipoprotein B-specific antibody (antibody1) was added to the liquid medium and subsequently a second antibody (antibody2) was added which binds specifically to the apoB-antibody1 -complex. The thus formed apoB-antibody1 -antibody2 complex precipitated and was isolated by centrifuge. Quantification of the amount of apolipoprotein B synthesized during the night resulted from measuring the radioactivity of the isolated complex. To measure the inhibiting activity of the test compound, that test compound was added to the liquid medium at different concentrations and the concentration of apolipoprotein B synthesized in the presence of a test compound (concentration apoB(after)) was compared to the concentration of apolipoprotein B which was synthesized in the absence of the test compound (concentration apoB(control)). For each experiment the inhibition of apolipoprotein-B formation was expressed as
% inhibition=100×(1-concentration of apoB(after)/concentration
When more experiments were carried out for the same concentration, the median value of the inhibition calculated for these experiments was calculated. IC50 -values (concentration of the drug needed to reduce apoB secretion to 50% of the control) were also computed.

Consider `CCC(C)n1cnn(-c2ccc(N3CCN(c4ccc(OC[C@@H]5CO[C@@](CSc6nncn6C)(c6ccc(Cl)cc6)O5)cc4)CC3)cc2)c1=O` (relative stereo) [Compound 2], for which half-maximal inhibition (IC50) required 47 nM.

As for `CCC(C)n1ncn(-c2ccc(N3CCN(c4ccc(OC[C@@H]5CO[C@@](CSc6ncnn6C(C)C)(c6ccc(Cl)cc6)O5)cc4)CC3)cc2)c1=O` (relative stereo) [Compound 82], the 50% inhibitory concentration (IC50) (as a rule, the point on the concentration scale where inhibition reaches its midpoint) was 31 nM.

Turning to `CCCn1cnnc1SC[C@]1(c2ccc(Cl)cc2)OC[C@H](COc2ccc(N3CCN(c4ccc(-n5cnn(C(C)CC)c5=O)cc4)CC3)cc2)O1` (relative stereo) [Compound 55], the 50% inhibitory concentration (IC50) is 78 nM.

The molecule `CC(C)n1cnn(-c2ccc(N3CCN(c4ccc(OC[C@H]5CO[C@](CSc6ncnn6C)(c6ccc(Cl)cc6)O5)cc4)CC3)cc2)c1=O` (relative stereo) [Compound 68] yielded an IC50 of 81 nM.

The molecule `CCC(CC)n1ncn(-c2ccc(N3CCN(c4ccc(OC[C@@H]5CO[C@@](CSc6nncn6C)(c6ccc(F)cc6)O5)cc4)CC3)cc2)c1=O` (relative stereo) [Compound 43] returned an IC50 of 110 nM.
